These compounds were tested against Ba/F3 EGFR-D770-N771ins_SVD (Homo sapiens, UniProt P00533, DUP768-770, cells depend on it) (assay: Cell proliferation study (CellTiter-Glo, 72 hrs), Ba/F3 EGFR-D770-N771ins_SVD). Conditions: CTG, * = average of multiple measurements, read-out: Ba/F3 EGFR-D770-N771ins_SVD IC50.
Format: cell-based
Description: (I) Reagents and Materials
• Fetal bovine serum FBS (GBICO, Cat #10099-141); • CellTiter-Glo® luminescent cell viability assay kit (Promega, Cat #G7572); • Black transparent flat-bottom 96-well plate (Corning®, Cat #3603). (II) Instruments • SpectraMax multi-label microplate reader MD, 2104-0010A; • Carbon dioxide incubator, Thermo Scientific 3100 series; • Biological safety cabinet, Thermo Scientific, 1300 series model A2; • Inverted microscope, Olympus, CKX41SF; • Siemens refrigerator KK25E76T1. (III) Cell Lines and Culture Conditions
(IV) Experimental Procedures 1. Cell Culture and Inoculation: • (1) Cells in the logarithmic growth phase were harvested and counted using a […]. The cell viability was determined by the trypan blue dye exclusion method to ensure cell viability above 90%. • (2) The cell concentration was adjusted to reach a desired final density; 90 μL of cell suspension was added to a 96-well plate. • (3) The cells were incubated overnight in the 96-well plate at 37° C., 5% CO2 and with 95% humidity. 2. T0 Benchmark Data: • (1) 10 μL of PBS was added to each well of the TO plate containing the cells. • (2) The CTG reagent was thawed and the cell plate was equilibrated to room temperature for 30 min. • (3) An equal volume of CTG solution was added to each well. • (4) The cells were lysed by shaking on an orbital shaker for 5 min. • (5) The cell plate was left to stand at room temperature for 20 min to stabilize the fluorescence signal. • (6) The fluorescence signal values of TO were read. 3. Dilution and Addition of Compounds • (1) According to the compound information table, a corresponding volume of DMSO was added to the corresponding compound powder to prepare a 10 mM stock solution. • (2) A 1000-fold, 3.16-fold-diluted compound solution was prepared. • (3) The 1000× diluted compound solution was diluted 100-fold with PBS to prepare a 10-fold compound solution with a maximum concentration of 10 μM, including 9 concentrations, with 3.16-fold dilution, and 10 μL of the medicament solution was added to each well of the 96-well plate to seed the cells. Triplicate wells were set for each compound concentration, with a final concentration of DMSO being 0.1%. • (4) The cells were placed in the 96-well plate containing the medicament at 37° C., 5% CO2 and with 95% humidity, and cultured for 72 hrs before CTG analysis. 4. Fluorescence Signal Reading • (1) The CTG reagent was thawed and the cell plate was equilibrated to room temperature for 30 min. • (2) An equal volume of CTG solution was added to each well. • (3) The cells were lysed by shaking on an orbital shaker for 5 min. • (4) The cell plate was left to stand at room temperature for 20 min to stabilize the fluorescence signal. • (5) The fluorescence values were read. 5. Data Processing
Data were analyzed using GraphPad Prism 7.0 software and fitted data were regressed using non-linear S-curves to obtain dose-response curves from which IC50 values (in nM) were calculated.

Chain of Ba/F3 EGFR-D770-N771ins_SVD (P00533 with tags, fused parts or gaps DUP768-770): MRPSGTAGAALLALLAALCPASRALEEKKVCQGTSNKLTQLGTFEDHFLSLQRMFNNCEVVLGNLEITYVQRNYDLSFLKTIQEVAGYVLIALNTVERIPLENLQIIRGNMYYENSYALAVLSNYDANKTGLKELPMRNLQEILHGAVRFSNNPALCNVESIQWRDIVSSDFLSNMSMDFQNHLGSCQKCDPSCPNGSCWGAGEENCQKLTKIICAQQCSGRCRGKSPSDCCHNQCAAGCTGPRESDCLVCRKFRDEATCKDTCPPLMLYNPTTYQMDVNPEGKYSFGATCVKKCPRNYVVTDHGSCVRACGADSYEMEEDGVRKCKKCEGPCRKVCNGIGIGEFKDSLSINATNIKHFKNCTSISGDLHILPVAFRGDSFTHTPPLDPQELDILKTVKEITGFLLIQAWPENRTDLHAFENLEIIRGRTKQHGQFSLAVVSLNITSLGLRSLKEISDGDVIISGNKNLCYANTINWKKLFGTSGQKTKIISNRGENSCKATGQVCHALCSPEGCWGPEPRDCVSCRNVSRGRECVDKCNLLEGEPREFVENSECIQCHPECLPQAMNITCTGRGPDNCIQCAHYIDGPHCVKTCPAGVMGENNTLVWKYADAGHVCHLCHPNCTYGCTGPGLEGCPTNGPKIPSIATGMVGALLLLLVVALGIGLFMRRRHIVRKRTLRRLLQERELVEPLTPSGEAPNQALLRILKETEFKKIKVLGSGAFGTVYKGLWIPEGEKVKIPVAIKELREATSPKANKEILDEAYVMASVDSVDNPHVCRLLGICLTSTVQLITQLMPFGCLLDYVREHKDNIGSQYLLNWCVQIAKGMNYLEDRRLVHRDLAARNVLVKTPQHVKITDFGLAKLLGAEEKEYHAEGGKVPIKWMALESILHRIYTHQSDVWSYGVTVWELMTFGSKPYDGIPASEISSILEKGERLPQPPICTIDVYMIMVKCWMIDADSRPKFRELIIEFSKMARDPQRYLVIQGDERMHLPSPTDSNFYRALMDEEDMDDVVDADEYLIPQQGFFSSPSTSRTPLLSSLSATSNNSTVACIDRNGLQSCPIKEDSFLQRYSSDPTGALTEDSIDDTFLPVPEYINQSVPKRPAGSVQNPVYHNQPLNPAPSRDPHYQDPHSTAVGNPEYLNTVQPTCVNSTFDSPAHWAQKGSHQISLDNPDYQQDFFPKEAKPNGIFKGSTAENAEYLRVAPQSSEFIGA

SMILES	GI50 [nM]
C=CC(=O)Nc1cc(Nc2ncc(C(=O)OC(C)C)c(N3CC(C)(C)c4nc(C)ccc43)n2)c(OC)cc1N1CCN(C)CC1 [Example 33, isopropyl 2-((5-acrylamido-2-methoxy-4-(4-methylpiperazin-1-yl)phenyl)amino)-4-(3,3,5-trimethyl-2,3-dihydro-1H-pyrrolo[3,2-b]pyridin-1-yl)pyrimidine-5-carboxylate]	503
C=CC(=O)Nc1cc(Nc2ncc(C(=O)OC(C)C)c(N3CC(C)(C)c4nc(N5CCC5)ccc43)n2)c(OC)cc1N(C)CCN(C)C [Example 38, isopropyl 2-((5-acrylamido-4-((2-(dimethylami-no)ethyl)(methyl)amino)-2-methoxy-phenyl)amino)-4-(5-(azetidin-1-yl)-3,3-dimethyl-2,3-dihydro-1H-pyrrolo[3,2-b]pyridin-1-yl)pyrimidine-5-carboxylate]	339
C=CC(=O)Nc1cc(Nc2ncc(C(=O)OC(C)C)c(N3CC4(CC(F)(F)C4)c4nc(C)ccc43)n2)c(OC)cc1N(C)CCN(C)C [Example 24, isopropyl 2-((5-acrylamido-4-((2-(dimethylami-no)ethyl)(methyl)amino)-2-methoxy-phenyl)amino)-4-(3,3-difluoro-5′-methylspiro(cyclobutane-1,3′-pyrrolo[3,2-b]pyridin)-1′(2′H)-yl)pyrimidine-5-carboxylate]	111
C=CC(=O)Nc1cc(Nc2ncc(C(=O)OC(C)C)c(N3CC(C)(C)c4nc(C)ccc43)n2)c(OC)cc1N(CC)CCN(C)C [Example 45, isopropyl 2-((5-acrylamido-4-((2-(dimethylami-no)ethyl)(ethyl)amino)-2-methoxy-phenyl)amino)-4-(3,3,5-trimethyl-2,3-dihydro-1H-pyrrolo[3,2-b]pyridin-1-yl)pyrimidine-5-carboxylate]	76.2
[2H]C([2H])([2H])N(CCN(C)C)c1cc(OC)c(Nc2ncc(C(=O)OC(C)C)c(N3CC4(CC4)c4nc(C)ccc43)n2)cc1NC(=O)C=C [Example 68, isopropyl 2-((5-acrylamino-4-((2-(dimethylami-no)ethyl)(methyl-d3)amino)-2-methoxyphenyl)amino)-4-(5′-methylspiro(cyclopropane-1,3′-pyrrolo[3,2-b]pyridin)-1′(2′H)-yl)pyrimidine-5-carboxylate]	30.6
C=CC(=O)Nc1cc(Nc2ncc(C(=O)OC(C)C)c(N3CC(C)(C)c4nc(C)ccc43)n2)c(OC2CC2)cc1N(C)CCN(C)C [Example 32, isopropyl 2-((5-acrylamido-2-cyclopropoxy-4-((2-(dimethylamino)ethyl)(methyl)ami-no)phenyl)amino)-4-(3,3,5-trimethyl-2,3-dihydro-1H-pyrrolo[3,2-b]pyridin-1-yl)pyrimidine-5-carboxylate]	44.4
C=CC(=O)Nc1cc(Nc2ncc(C(=O)OC(C)C)c(N3CC(C)(C)c4nc(C#CC)ccc43)n2)c(OC)cc1N1CCN(C2CC2)CC1 [Example 75, isopropyl 2-((5-acrylamido-4-(4-cyclopropyl-piperazin-1-yl)-2-methoxyphenyl)ami-no)-4-(3,3-dimethyl-5-(prop-1-yn-1-yl)-2,3-dihydro-1H-pyrrolo[3,2-b]pyridin-1-yl)pyrimidine-5-carboxylate]	2850
C=CC(=O)Nc1cc(Nc2ncc(C(=O)OC(C)C)c(N3CC(C)(C)c4nc(C#CC5CC5)ccc43)n2)c(OC)cc1N(C)CCN(C)C [Example 18, isopropyl 2-((5-acrylamido-4-((2-(dimethylami-no)ethyl)(methyl)amino)-2-methoxy-phenyl)amino)-4-(5-(cyclo-propylethynyl)-3,3-dimethyl-2,3-dihydro-1H-pyrrolo[3,2-b]pyridin-1-yl)pyrimidine-5-carboxylate]	50.8

More lines, in order of falling GI50, values ahead:

GI50 [nM]	SMILES
545	C=CC(=O)Nc1cc(Nc2ncc(C(=O)OC(C)C)c(N3CC(C)(C)c4nc(C)ccc43)n2)c(OC)cc1N1CCN(C2CC2)CC1 [Example 39, isopropyl 2-((5-acrylamido-4-(4-cyclopropyl-piperazin-1-yl)-2-methoxy-phenyl)amino)-4-(3,3,5-trimethyl-2,3-dihydro-1H-pyrrolo[3,2-b]pyridin-1-yl)pyrimidine-5-carboxylate]
501	C=CC(=O)Nc1cc(Nc2ncc(C(=O)OC(C)C)c(N3CC(C)(C)c4nc(C#CC)ccc43)n2)c(OC)cc1N1CCN(C)CC1 [Example 70, isopropyl 2-((5-acrylamido-2-methoxy-4-(4-methylpiperazin-1-yl)phenyl)amino)-4-(3,3-dimethyl-5-(prop-1-yn-1-yl)-2,3-dihydro-1H-pyrrolo[3,2-b]pyridin-1-yl)pyrimidine-5-carboxylate]
309	C=CC(=O)Nc1cc(Nc2ncc(C(=O)OC(C)C)c(N3CC(C)(C)c4nc(C(C)C)ccc43)n2)c(OC)cc1N(C)CCN(C)C [Example 16, isopropyl 2-((5-acrylamido-4-((2-(dimethylami-no)ethyl)(methyl)amino)-2-methoxy-phenyl)amino)-4-(5-isopropyl-3,3-dimethyl-2,3-dihydro-1H-pyrrolo[3,2-b]pyridin-1-yl)pyrimidine-5-carboxylate]
204	C=CC(=O)Nc1cc(Nc2ncc(C(=O)OC(C)C)c(N3CC(C)(C)c4nc(C)ccc43)n2)c(OC(C)C)cc1N(C)CCN(C)C [Example 28, isopropyl 2-((5-acrylamido-4-((2-(dimethylami-no)ethyl)(methyl)amino)-2-isopropoxy-phenyl)amino)-4-(3,3,5-trimethyl-2,3-dihydro-1H-pyrrolo[3,2-b]pyridin-1-yl)pyrimidine-5-carboxylate]
135	C=CC(=O)Nc1cc(Nc2ncc(C(=O)OC(C)C)c(N3CC(C)(C)c4nc(C(F)(F)F)ccc43)n2)c(OC)cc1N(C)CCN(C)C [Example 17, isopropyl 2-((5-acrylamido-4-((2-(dimethylami-no)ethyl)(methyl)amino)-2-methoxy-phenyl)amino)-4-(3,3-dimethyl-5-(trifluoromethyl)-2,3-dibydro-1H-pyrrolo[3,2-b]pyridin-1-yl)pyrimidine-5-carboxylate]
116	C=CC(=O)Nc1cc(Nc2ncc(C(=O)OC(C)C)c(N3CC(C)(C)c4nc(Br)ccc43)n2)c(OC)cc1N(C)CCN(CC)CC [Example 90, isopropyl 2-((5-acrylamido-4-((2-(diethyl-amino)ethyl)(methyl)amino)-2-methoxyphenyl)amino)-4-(5-bromo-3,3-dimethyl-2,3-dihydro-1H-pyrrolo[3,2-b]pyridin-1-yl)pyrimidine-5-carboxylate]
72.9	C=CC(=O)Nc1cc(Nc2ncc(C(=O)OC(C)C)c(N3CC(C)(C)c4nc(C)ccc43)n2)c(OCC)cc1N(C)CCN(C)C [Example 37, isopropyl 2-((5-acrylamido-4-((2-(dimethylami-no)ethyl)(methyl)amino)-2-ethoxy-phenyl)amino)-4-(3,3,5-trimethyl-2,3-dihydro-1H-pyrrolo[3,2-b]pyridin-1-yl)pyrimidine-5-carboxylate]
44.9	C=CC(=O)Nc1cc(Nc2ncc(C(=O)OC(C)C)c(N3CC(C)(C)c4nc5c(cc43)CCC5)n2)c(OC)cc1N(C)CCN(C)C [Example 80, isopropyl 2-((5-acrylamido-4-((2-(dimethylami-no)ethyl)(methyl)amino)-2-methoxy-phenyl)amino)-4-(3,3-dimethyl-3,5,6,7-tetrahydrocyclopenta[b]pyrrolo[2,3-e]pyridin-1(2H)-yl)pyrimidine-5-carboxylate]
